Measured values: patent US20050058707A1, “Uniform delivery of topiramate over prolonged period of time with enhanced dispersion formulation” (priority 2003, published 2005)
Converted amounts (≈) assume the structure as drawn. Like-named read-outs stand apart in the source and are kept apart here.

Key:
[1] = Aqueous solubility of topiramate; assay type: physicochemical; details: 37 °C, thermodynamic from solid
Procedure: Aqueous solubility is determined by adding the therapeutic agent to stirred or agitated water maintained in a constant temperature bath at a temperature of 37 degrees centigrade until no more agent dissolves. The resulting solution saturated with active agent is then filtered, typically under pressure through a 0.8-micron Millipore filter, and the concentration in solution is measured by any appropriate analytical method including gravimetric, ultraviolet spectrophometry, chromatography, and the like.

[2] = Physicians' Desk Reference; cited from earlier work

In the case of `CC1(C)O[C@@H]2[C@@H](CO[C@@]3(COS(N)(=O)=O)OC(C)(C)O[C@@H]23)O1` [Topiramate, topiramate], the solubility ([1]; de-ionized water, read-out: Solubility of neat topiramate measured in de-ionized water) is listed as 12 mg/mL (≈ 35.4 mM), the solubility ([1]; water, read-out: solubility) is listed as 9.8 to 13 mg/mL (≈ 28.9 to 38.3 mM) and the solubility in water [2] is listed as “about 9.8 mg/ml”.
